According to the supplement of paper PMC4862054:

Columns and labels:
Conditions in all cases: incubation time: 72 h
[1] = system: HCC1599; test: normalised response (% of control), CellTiter-Glo; higher = more viable cells (100 = DMSO, 0 = benzethonium chloride kill control)
Outline: (§1)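 After 72 h with compound in 384-well plates, breast cancer cell lines seeded as 20 µl suspension were read for CellTox Green fluorescence at 485/520 nm. CellTiter-Glo luminescence was then read after 10 min at room temperature. Compound was present at 5 concentrations in 10-fold steps over a 10,000-fold range set per compound, and plates were normalised to 0.1 % DMSO (100) and a positive kill control (0). Values are normalised signals, each at a single concentration.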

[2] = system: BT-474; test: as above
Outline: as §1

[3] = system: MDA-MB-436; test: as above
Outline: as §1

[4] = system: Hs578T; test: as above
Outline: as §1

[5] = system: HCC1143; test: as above
Outline: as §1

[6] = system: CAL-51; test: as above
Outline: as §1

[7] = system: MFM-223; test: as above
Outline: as §1

[8] = system: DU-4475; test: as above
Outline: as §1

[9] = system: BT-549; test: as above
Outline: as §1

[10] = system: HDQ-P1; test: as above
Outline: as §1

[11] = system: CAL-120; test: as above
Outline: as §1

[12] = system: CAL-148; test: as above
Outline: as §1

[13] = system: CAL-85-1; test: as above
Outline: as §1

[14] = system: MDA-MB-453; test: as above
Outline: as §1

[15] = system: MCF-10A; test: as above
Outline: as §1

[16] = system: MDA-MB-468; test: as above
Outline: as §1

[17] = system: MDA-MB-231; test: as above
Outline: as §1

[18] = system: HCC1937; test: as above
Outline: as §1

[19] = system: SK-BR-3; test: as above
Outline: as §1

[20] = system: HCC1599; test: normalised response (% of control), CellTox Green; higher = less cell death (100 = DMSO, 0 = benzethonium chloride kill control)
Outline: as §1

[21] = system: BT-474; test: as above
Outline: as §1

[22] = system: MDA-MB-436; test: as above
Outline: as §1

[23] = system: Hs578T; test: as above
Outline: as §1

[24] = system: HCC1143; test: as above
Outline: as §1

[25] = system: CAL-51; test: as above
Outline: as §1

[26] = system: MFM-223; test: as above
Outline: as §1

[27] = system: DU-4475; test: as above
Outline: as §1

[28] = system: BT-549; test: as above
Outline: as §1

[29] = system: HDQ-P1; test: as above
Outline: as §1

[30] = system: CAL-120; test: as above
Outline: as §1

[31] = system: CAL-148; test: as above
Outline: as §1

[32] = system: CAL-85-1; test: as above
Outline: as §1

[33] = system: MDA-MB-453; test: as above
Outline: as §1

[34] = system: MCF-10A; test: as above
Outline: as §1

[35] = system: MDA-MB-468; test: as above
Outline: as §1

[36] = system: MDA-MB-231; test: as above
Outline: as §1

[37] = system: HCC1937; test: as above
Outline: as §1

Compound | normalised response [1] | normalised response [2] | normalised response [3] | normalised response [4] | normalised response [5] | normalised response [6] | normalised response [7] | normalised response [8] | normalised response [9] | normalised response [10] | normalised response [11] | normalised response [12] | normalised response [13] | normalised response [14] | normalised response [15] | normalised response [16] | normalised response [17] | normalised response [18] | normalised response [19] | normalised response [20] | normalised response [21] | normalised response [22] | normalised response [23] | normalised response [24] | normalised response [25] | normalised response [26] | normalised response [27] | normalised response [28] | normalised response [29] | normalised response [30] | normalised response [31] | normalised response [32] | normalised response [33] | normalised response [34] | normalised response [35] | normalised response [36] | normalised response [37]
COc1ccc(-c2cc3c(C)nc(N)nc3n([C@H]3CC[C@H](OCCO)CC3)c2=O)cn1 (100 nM) | 88.3% | 67.2% | 77% | 73.7% | 76.8% | 53.4% | 72.3% | 83.2% | 69.5% | 66.3% | 67.7% | 74.5% | 68.9% | 55.7% | 58% | 68.8% | 64.8% | 74.5% | 42% | 90.3% | 94.4% | 97.9% | 89.6% | 66.1% | 85.1% | 96.2% | 96.2% | 112% | 88.6% | 95.7% | 80.1% | 91.3% | 98.1% | 85.6% | 31% | 37.5% | 107%
CC/C(=C(\c1ccc(O)cc1)c1ccc(OCCN(C)C)cc1)c1ccccc1 [4-hydroxytamoxifen] (100 nM) | 91.5% | 99.1% | 94.9% | 98% | 96.2% | 99% | 99.1% | 104% | 107% | 95.9% | 105% | 99.9% | 105% | 111% | 106% | 93.2% | 100% | 95% | 101% | 114% | 105% | 108% | 50.3% | 115% | 98.1% | 106% | 108% | 104% | 87.3% | 98.8% | 99.1% | 113% | 111% | 93% | 106% | 117% | 89.2%
COc1cc(CCc2cc(NC(=O)c3ccc(N4CC(C)NC(C)C4)cc3)n[nH]2)cc(OC)c1 (stereo unspecified) [AZD4547] (10 nM) | 104% | 106% | 105% | 89.8% | 99.3% | 111% | 70.8% | 88.8% | 98.4% | 98.9% | 95.8% | 99.5% | 103% | 95.7% | 90.3% | 98.3% | 96.4% | 94.8% | 92.3% | 93.9% | 95.9% | 55.9% | 103% | 91.2% | 95% | 92.8% | 98.2% | 106% | 104% | 102% | 51.3% | 99.2% | 104% | 79.9% | 158% | 94.2% | 82.4%
CCC/C=C/C=C/C(=O)O[C@H]1/C(=C/C(=O)OC)C[C@H]2C[C@H]([C@@H](C)O)OC(=O)C[C@H](O)C[C@@H]3C[C@H](OC(C)=O)C(C)(C)[C@](O)(C[C@@H]4C/C(=C/C(=O)OC)C[C@H](/C=C/C(C)(C)[C@]1(O)O2)O4)O3 [Bryostatin 1] (1 nM) | 99.3% | 92.3% | 102% | 79.6% | 102% | 58% | 104% | 91.6% | 101% | 88.6% | 103% | 116% | 95.5% | 103% | 107% | 99.8% | 95.9% | 93% | 66.2% | 111% | 86.8% | 100% | 94% | 117% | 91% | 104% | 106% | 111% | 75.6% | 103% | 111% | 97.7% | 94.6% | 98.5% | 105% | 113% | 123%
Cc1nc(Nc2ncc(C(=O)Nc3c(C)cccc3Cl)s2)cc(N2CCN(CCO)CC2)n1 [Dasatinib] (10 nM) | 94.3% | 74.5% | 97.1% | 94.3% | 90.2% | 82% | 95% | 99.4% | 97.2% | 74.8% | 93.7% | 99.2% | 95.7% | 99.5% | 71.5% | 92.2% | 70.6% | 90.5% | 101% | 97.7% | 102% | 98% | 84.7% | 56.7% | 86.6% | 98.9% | 110% | 111% | 96.7% | 100% | 93.9% | 102% | 106% | 58.3% | 107% | 84.2% | 93.1%
C[C@]12O[C@H](C[C@]1(O)CO)n1c3ccccc3c3c4c(c5c6ccccc6n2c5c31)CNC4=O [Lestaurtinib] (10 nM) | 96.9% | 98.8% | 93.8% | 90.2% | 105% | 103% | 97.2% | 98% | 109% | 102% | 92.2% | 107% | 102% | 81.1% | 83.7% | 78.7% | 101% | 94.3% | 82.4% | 90.6% | 99.3% | 78.8% | 108% | 50.3% | 98.4% | 103% | 94.2% | 100% | 104% | 97.4% | 87.7% | 96.2% | 101% | 91.2% | 60% | 97.3% | 103%
c1cc(CN2CCCNCCNCCCNCC2)ccc1CN1CCCNCCNCCCNCC1 [Plerixafor] (100 nM) | 95.3% | 98.8% | 92% | 94.8% | 104% | 67.7% | 85.1% | 88.1% | 109% | 103% | 100% | 89.8% | 101% | 83% | 79.7% | 97.6% | 97.1% | 96.6% | 84.1% | 88.9% | 85.5% | 74.2% | 99.3% | 95.1% | 59.6% | 50.4% | 91.7% | 95.9% | 101% | 93.5% | 94.4% | 92.5% | 91.3% | 97.7% | 89.8% | 96.5% | 73.9%
C[C@]12C=CC(=O)C=C1CC[C@@H]1[C@@H]2[C@@H](O)C[C@@]2(C)[C@H]1CC[C@]2(O)C(=O)CO [Prednisolone] (100 nM) | 105% | 146% | 101% | 113% | 102% | 112% | 110% | 106% | 96% | 89.3% | 87.4% | 114% | 109% | 95% | 102% | 109% | 146% | 103% | 104% | 103% | 101% | 89.9% | 110% | 118% | 117% | 96.1% | 98.8% | 97.2% | 106% | 102% | 103% | 85.8% | 104% | 95.5% | 108% | 134% | 115%
